Data published in PubChem BioAssay AID179 (DTP/NCI, 2004).
Activity calls are given as the source filed them.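 The calls were made as follows: active = compounds giving half or more protection of infected cells from virus-caused growth loss, again on retest; inactive = the rest.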

Tested on: CEM cells HIV-1 protection, formazan growth assay
Assay: NCI AIDS Antiviral Assay
Details: for IC50: measured here: growth of uninfected CEM cells
Outline: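 CEM (human) cells, HIV-1 infected vs uninfected, 5-point dosing, formazan growth read-out. Retest threshold 50% protection.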

Row | SMILES | EC50 [µM] | IC50 [µM] | outcome
1 | CCCCCCCCCCCCc1ccsc1-c1ccc(-c2ccc(-c3sc(-c4cc(CCCCCCCCCCCC)c(-c5ccc(-c6ccc(-c7sccc7CCCCCCCCCCCC)s6)s5)s4)cc3CCCCCCCCCCCC)s2)s1 | > 50.1 | > 50.1 | –
2 | CCN(CC)CCCCCCNc1cc(C)cc2cccnc12 | > 200 | 20.9 | –
3 | CCOC(=O)CCNC(=O)c1cc(C)cc2c1Oc1c(cc(C)cc1C(=O)NCCC(=O)OCC)S2 | > 200 | 29.5 | –
4 | N#Cc1c2nc3ccccc3nc2n2ccc3ccccc3c12 | > 200 | > 200 | –
5 | O=[N+]([O-])c1ccc(C2=NOC(c3ccc(Cl)cc3)N2C23CC4CC(CC(C4)C2)C3)cc1 (stereo not given) | > 200 | 182 | –
6 | COC(OC)(c1ccccc1)C(Br)Br | – | – | inactive
7 | CCC(/C=C/C1OC(=O)C=CC1C)=C\C(C)C/C=C/C(C)=C/C(C)C(=O)C(C)C(O)C(C)C/C(C)=C/C(=O)O (stereo not given) | – | – | inactive
8 | COc1cc(CC(=O)c2cc3c(cc2-c2ccccc2)OCO3)cc(OC)c1OC | > 89.1 | 24 | –
9 | O=C(NC1=NCC(CN2CCN(c3ccccc3)CC2)O1)Nc1ccccc1 (stereo not given) | > 200 | 155 | –
10 | c1ccc(N=C(Nc2ccccc2)N2CCCC2)cc1 | > 200 | 174 | –
11 | C=CC[C@@]1(C#N)C[C@H](C[C@]2(C#N)C[C@H](CCl)OC(C)(C)O2)OC(C)(C)O1 | > 200 | 107 | –
12 | Cc1ccc(NC(=O)c2cc(S(=O)(=O)Nc3nc4ncccc4[nH]3)c(SSc3cc(Cl)c(C(=O)Nc4ccc(C)cc4)cc3S(=O)(=O)Nc3nc4ncccc4[nH]3)cc2Cl)cc1 | > 200 | > 200 | –
13 | COC(=O)c1cc2c(o1)Sc1ccccc1NC2=O | > 200 | > 200 | –
14 | CC(C)(C)OC(=O)N1CCC2(CC1)C(=O)NCN2c1ccccc1 | > 200 | > 200 | –
15 | O=C1C2CCCCC2C(=O)N1n1c(-c2ccccc2)n[nH]c1=O (stereo not given) | > 200 | > 200 | –
16 | C=CCn1cc(C(=O)NC(=O)NCCCCCOC(=O)CCCCCCCCCCC(=O)OCCCCCNC(=O)NC(=O)c2cn(CC=C)c(=O)n(C)c2=O)c(=O)n(C)c1=O | > 5.75 | > 5.75 | –
17 | CCCCC(N)CSSCC(N)CCCC (stereo not given) | > 741 | 21.4 | –
18 | O=c1oc2c(-c3c(O)c(=O)oc4ccccc34)cc(O)cc2s1 | > 209 | 97.7 | –
19 | O=c1[nH]c(Nc2nc3ccccc3[nH]2)nc(O)c1-c1ccccc1 | 162 | > 200 | –
20 | CCOC(=O)NC(NC(=O)OCC)C(NC(=O)OCC)NC(=O)OCC | > 200 | > 200 | –

Row | SMILES | EC50 [µM] | IC50 [µM] | outcome
21 | C/C=C/CC(C)C(OS(=O)(=O)O)C1C(=O)NC(CC)C(=O)N(C)CC(=O)N(C)C(CC(C)C)C(=O)NC(C(C)C)C(=O)N(C)C(CC(C)C)C(=O)NC(C)C(=O)NC(C)C(=O)N(C)C(CC(C)C)C(=O)N(C)C(CC(C)C)C(=O)N(C)C(C(C)C)C(=O)N1C (stereo not given) | 0.661 | 6.61 | –
22 | O=C1CCCC2=C1CC1=C(CCCC1=O)N2c1cccc2ccccc12 | 49 | 174 | –
23 | O=C(O)c1ccccc1S | > 200 | > 200 | –
24 | CN1C(=O)c2cccc3cc([N+](=O)[O-])cc(c23)C1=O | > 53.7 | 10.2 | –
25 | O=C(O)c1cc(Br)cc(SSc2cc(Br)cc(C(=O)O)c2O)c1O | 102 | 107 | –
26 | CCOC(=O)C1C(=O)CC2c3nc4ccccc4cc3CN2C1=O (stereo not given) | > 10 | > 10 | –
27 | CC[C@@]1(OC(=O)C(N)CCC(=O)O)C(=O)OCc2c1cc1n(c2=O)Cc2cc3ccccc3nc2-1 (stereo not given in full) | > 10 | 0.0145 | –
28 | O=Nc1cc(S(=O)(=O)O)c2cccnc2c1O | > 200 | 52.5 | –
29 | O=C1c2ccccc2C(=O)N1Cc1ccccc1-c1c2nc(c(-c3ccccc3CN3C(=O)c4ccccc4C3=O)c3ccc([nH]3)c(-c3ccccc3CN3C(=O)c4ccccc4C3=O)c3nc(c(-c4ccccc4CN4C(=O)c5ccccc5C4=O)c4ccc1[nH]4)C=C3)C=C2 | > 4.17 | > 4.17 | –
30 | CSc1ccc(C2OC(=O)c3ccccc32)c2ccccc12 (stereo not given) | > 17 | > 17 | –
31 | COc1cc(C2SCC(=O)N2c2ccc(-c3ccc(-n4c(-c5ccccc5)nc5ccccc5c4=O)cc3)cc2)cc(OC)c1OC (stereo not given) | > 200 | 14.8 | –
32 | CC(=O)N1C(C(=O)NNc2ccccc2)CSC1c1ccccc1 (stereo not given) | > 200 | 12.3 | –
33 | CC1(C)CC(=O)c2c(nc(SSc3nc4c(c(-c5ccc(Br)cc5)c3C#N)C(=O)CC(C)(C)C4)c(C#N)c2-c2ccc(Br)cc2)C1 | 18.6 | 162 | –
34 | Cc1ccc(S(=O)(=O)N2CCCCC2)cc1 | > 200 | 72.4 | –
35 | COC(=O)Nc1cn2nc(N)sc2n1 | > 200 | > 200 | –
36 | CN1CN(c2ccccc2)C2(CCN(C3Nc4ccccc4O3)CC2)C1=O (stereo not given) | > 200 | 74.1 | –
37 | CN(C)c1cc(CNCCSC(c2ccccc2)(c2ccccc2)c2ccccc2)nc(CNCCSC(c2ccccc2)(c2ccccc2)c2ccccc2)c1 | > 200 | 3.02 | –
38 | CCOC(=O)/C(=C/c1ccncc1)C(=O)c1ccccc1 | > 129 | > 129 | –
39 | CCOP(=O)(OCC)C(C(=O)OC)C(=O)C(=O)Nc1cccc([N+](=O)[O-])c1 (stereo not given) | > 617 | > 617 | –
40 | S=C=Nc1ccc(CSc2nc3ccccc3[nH]2)cc1 | – | – | inactive

Row | SMILES | EC50 [µM] | IC50 [µM] | outcome
41 | O=C(O)CCCSC(=O)Nc1ccc(N=Nc2ccccc2)cc1 | – | – | inactive
42 | CC(=O)CC(=O)Nc1ccccc1C(F)(F)F | > 204 | > 204 | –
43 | c1ccc(CNc2nncc3[nH]cnc23)cc1 | > 200 | > 200 | –
44 | CC(=O)N1CCCN(C)/C1=N/[N+](=O)[O-] | > 200 | > 200 | –
45 | C1CSCCSCCSCCSCCSCCS1 | > 14.5 | > 14.5 | –
46 | c1ccc2c(c1)c1c(n2CCOCCN2CCCCC2)CCCC1 | > 200 | 8.32 | –
47 | O=C1N(O)C2(C=CCCC2)/C(=N/O)C12CCCCC2 (stereo not given) | > 70.8 | > 70.8 | –
48 | COc1ccc(-c2c(C#N)c(O)n(NS(=O)(=O)c3ccc(C)cc3)c(=O)c2C#N)cc1 | > 200 | 56.2 | –
49 | Cc1ccccc1NC(=O)/C(=N/NC(=O)CC#N)C1C(=O)N(c2ccccc2)N=C1N (stereo not given) | > 12.6 | > 12.6 | –
50 | CCOC(=O)c1nc2ccccc2nc1Nc1ccc(C(=O)OC)s1 | > 200 | > 200 | –
51 | O=C(Cc1ccccc1CCO)NCCc1ccccc1 | > 200 | > 200 | –
52 | Cn1c(=O)c2c(nc(N)n2C2OC(CO)C(O)C2O)n(C)c1=O (stereo not given) | > 200 | > 200 | –
53 | CC1=C(C(=O)Nc2cc(F)c(F)cc2F)C(c2ccc([N+](=O)[O-])cc2)C(C(=O)Nc2cc(F)c(F)cc2F)=C(C)N1 | > 77.6 | 72.4 | –
54 | O=c1[nH]c2cc(Cl)ccc2nc1/C(=N\O)C(O)c1ccc(Cl)cc1Cl (stereo not given) | > 74.1 | > 74.1 | –
55 | Cn1ccn2c3nc4ccccc4nc3c(=O)c(C#N)c12 | – | – | inactive
56 | O=c1[nH]c(O)c(/C=N/C(=S)Nc2ccccc2)c(=O)[nH]1 | – | – | inactive
57 | O=C(CC/C(CC(=O)c1ccc(Cl)cc1)=N\O)Nc1cccc(Cl)c1 | > 347 | 257 | –
58 | Oc1ccc(C2O[C@H](c3ccc(O)cc3)C(c3cc(O)cc(O)c3)C2c2cc(O)cc3c2C(c2cc(O)cc4c2C(c2cc(O)cc(O)c2)[C@H](c2ccc(O)cc2)O4)[C@@H](c2ccc(O)cc2)O3)cc1 (stereo not given in full) | 36.3 | 214 | –
